Data set [1] can be described thus: Solubility of betulin in single and mixed polar organic solvents. It is filed as physicochemical. The note with it: organic solvent or mixture. The source says:
This recrystallization step is an intermediate step for obtaining ultrapure betulin of 99.5% or more and highly-pure betulinic acid of 95% or more. The outer bark and inner bark of a birch tree generally includes betulin, betulinic acid, lupeol (CAS 545-47-1) and polar pigment components. […] When the outer bark of a birch tree is extracted using such a polar organic solvent, a crude extract including 70 ∼ 83% of betulin, 4 ∼ 8% of betulinic acid and residual polar pigment components can be obtained. In this case, in order to use betulin and betulinic acid as intermediate materials for fine chemical products or medical supplies or additives for enhancing antiviral activity, the crude extract is recrystallized.
Preferably, a mixture of organic solvents having a density range of 0.91 g/mL ∼ 1.37 g/mL may be used. […] The crude extract is recrystallized using such a mixture of organic solvents to obtain a high-quality crystallized product (including a secondary crystallized product) including 94 ∼ 96.5% of betulin, 3 ∼ 4% of betulinic acid and residual polar pigment components, and then ultrapure betulin is produced using a 4-bed eluent swing continuous adsorption unit.

A further data set has as its system herpes simplex viruses. To be noted: betulin mixed with acyclovir; Gong et al. 2004; cited from earlier work.
For data set [2], the system named is human prostatic cancer cells (LNCaP, PC-3, and DU-145) and fibroblast cells. To be noted: PC-3, DU-145 and fibroblast cells, US 2006/0154903; cited from earlier work.

≈ marks a conversion by molar mass, not a printed value. Read-outs that look alike come from different tables or passages of the source.

As for `C=C(C)[C@@H]1CC[C@]2(CO)CC[C@]3(C)[C@H](CC[C@@H]4[C@@]5(C)CC[C@H](O)C(C)(C)[C@@H]5CC[C@]43C)[C@@H]12` [betulin], the solubility in data set [1] (chloroform, at 60.5°C, read-out: solubility of betulin in chloroform) was at most 40.7 mg/mL; in data set [1] (chloroform:ethanol 18:82 v/v, density = 0.91 g/mL, at 60.5°C, read-out: solubility of betulin in the mixed solvent of chloroform and ethanol), 38.6 mg/mL (≈ 87.2 mM); in data set [1] (chloroform:ethanol 57:43 v/v, density = 1.19 g/mL, at 60.5°C, read-out: solubility of betulin in the mixed solvent of chloroform and ethanol), 140 mg/mL (≈ 316 mM); in data set [1] (chloroform:ethanol 82:18 v/v, density = 1.37 g/mL, at 60.5°C, read-out: solubility of betulin in the mixed solvent of chloroform and ethanol), 163 mg/mL (≈ 368 mM); in data set [1] (ethanol, at 77.1°C, read-out: solubility of betulin in ethanol), at most 23 mg/mL; in data set [1] (ethanol, at 78°C, read-out: solubility of betulin in ethanol) it was at most 18.5 mg/mL. For the same compound, the solubility is at most 40.7 mg/mL in data set [1] (ethyl acetate, at 60.5°C, read-out: solubility of betulin in ethyl acetate); at most 23 mg/mL in data set [1] (ethyl acetate, at 77.1°C, read-out: solubility of betulin in ethyl acetate); at most 6.73 mg/mL in data set [1] (methanol, at 64.7°C, read-out: solubility of betulin in methanol). For the same compound, in the data set on herpes simplex viruses, the “antiviral effects to herpes simplex viruses” value is listed as “antiviral effects were provided”.
With `C=C(C)[C@@H]1CC[C@]2(C(=O)O)CC[C@]3(C)[C@H](CC[C@@H]4[C@@]5(C)CCC(=O)C(C)(C)[C@@H]5CC[C@]43C)[C@@H]12` [butulonic acid], in data set [2], the “inhibiting the growth of human prostatic cancer cells and fibroblast cells” value is on record as “has an effect on inhibiting the growth”.

For orientation: solubility means the dissolved amount per volume that the medium holds.

These data come from patent EP2514430B1, “METHOD AND APPARATUS FOR SIMULTANEOUSLY MANUFACTURING ULTRA PURE BETULIN AND HIGHLY PURE BETULINIC ACID FROM BIRCH BARK” (Korea Institute of Energy Research, priority 2009, dated 2011).
